From PubChem BioAssay (NCI)
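Assay format: 96-well plates, 48-hour exposure. GI50 = concentration required for 50% inhibition of growth. TGI marks complete inhibition of growth.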

Key:
Experiment in all cases: growth of human tumour cells (NCI), 48 h
OVCAR-8 ovarian = test system: OVCAR-8 ovarian
RPMI-8226 leukemia = test system: RPMI-8226 leukemia
EKVX NSCLC = test system: EKVX NSCLC
SF-295 CNS = test system: SF-295 CNS
MCF7 breast = test system: MCF7 breast
TK-10 renal = test system: TK-10 renal
DU-145 prostate = test system: DU-145 prostate
K-562 leukemia = test system: K-562 leukemia
CAKI-1 renal = test system: CAKI-1 renal
SK-MEL-5 melanoma = test system: SK-MEL-5 melanoma

Row | SMILES | GI50 (OVCAR-8 ovarian) | TGI (OVCAR-8 ovarian) | GI50 (RPMI-8226 leukemia) | TGI (RPMI-8226 leukemia) | GI50 (EKVX NSCLC) | TGI (EKVX NSCLC) | GI50 (SF-295 CNS) | TGI (SF-295 CNS) | GI50 (MCF7 breast) | TGI (MCF7 breast) | GI50 (TK-10 renal) | TGI (TK-10 renal) | GI50 (DU-145 prostate) | TGI (DU-145 prostate) | GI50 (K-562 leukemia) | TGI (K-562 leukemia) | GI50 (CAKI-1 renal) | TGI (CAKI-1 renal) | GI50 (SK-MEL-5 melanoma) | TGI (SK-MEL-5 melanoma)
1 | OCCCCC#Cc1ccccc1C#Cc1ccccc1 | 24500 nM | 59.5 µM | 15900 nM | 37.7 µM | 6590 nM | 22.4 µM | 7650 nM | 22.6 µM | 21000 nM | 48.1 µM | 13.2 µM | 26.3 µM | 5.22 µM | 20.2 µM | 22.1 µM | > 100 µM | 14700 nM | 29.1 µM | 14400 nM | 28.6 µM
2 | CC1=C([Se]CC(OC(=O)CC[Se]c2ccccc2)C(=O)NCCCCCC(=O)OCc2ccccc2)C(=O)c2ccccc2C1=O (stereo not given) | 2440 nM | 7.16 µM | 3180 nM | 12.9 µM | 2960 nM | 29.2 µM | 1970 nM | 8.46 µM | 2510 nM | 12.7 µM | 4.47 µM | 12.4 µM | 3.64 µM | 11.4 µM | 3.31 µM | 23.7 µM | 2570 nM | 7.72 µM | 1540 nM | 3.06 µM
3 | O=c1cccc(C#CC#C[C@H]2O[C@@H]2CO)o1 | 341 nM | 1.43 µM | 101 nM | 0.331 µM | 1970 nM | 4.18 µM | 1700 nM | 3.77 µM | 472 nM | 4.28 µM | 0.495 µM | 1.93 µM | 1.56 µM | 3.24 µM | 0.182 µM | > 100 µM | 189 nM | 0.359 µM | 1500 nM | 2.95 µM
4 | CCCC[C@H]1C(=O)O[C@H](C)[C@H](NC(=O)c2cccc(NC=O)c2O)C(=O)O[C@@H](C)[C@@H]1OC(=O)CC(C)C |  | 40.5 µM |  | 24.4 µM |  | 37.9 µM |  | 21 µM |  | 25.8 µM |  | 50.6 µM |  | 40.7 µM |  | 57.7 µM |  | 40.9 µM |  | 16.8 µM
5 | N[C@@H](Cc1c[nH]c2ccccc12)C(=O)NC1CCN(C(=O)c2c[nH]c3ccccc23)CC1 | > 100000 nM | > 100 µM | > 100000 nM | > 100 µM | > 100000 nM | > 100 µM | > 100000 nM | > 100 µM | > 100000 nM | > 100 µM | > 100 µM | > 100 µM | 72.2 µM | > 100 µM | > 100 µM | > 100 µM | > 100000 nM | > 100 µM | > 100000 nM | > 100 µM
6 | CN(C)CCCn1c2c(c3cnccc3c1=O)C(=O)c1ccccc1-2 | 313 nM | 44.1 µM | 337 nM | 1.65 µM | 2330 nM | 16 µM | 737 nM | 5.59 µM | 244 nM | 1.76 µM | 0.721 µM | 27.6 µM | 0.49 µM | 3.43 µM | 0.474 µM | 12.5 µM | 376 nM | 7.01 µM | 363 nM | 1.48 µM
7 | Oc1ccc(/C=N\Nc2ccccn2)c(O)c1 | 645 nM | > 100 µM | 1450 nM | > 100 µM | 1400 nM | 7.46 µM | 318 nM | 0.767 µM | 1760 nM | 11 µM | 8.41 µM | > 100 µM | 0.422 µM | 4.32 µM | 0.482 µM | > 100 µM | 252 nM | 0.687 µM | 2170 nM | > 100 µM
8 | N#CC(=S)Nc1cccc(Cl)c1 |  | > 100 µM |  | 61.4 µM |  | > 100 µM |  | > 100 µM |  | > 100 µM |  | > 100 µM |  | > 100 µM |  | > 100 µM |  | > 100 µM |  | 44.5 µM
9 | CC1=C(/C=C/C(C)=C\C=C\C(C)=C\C(=O)Nc2ccc3c(c2)OCO3)C(C)(C)CCC1 | 93100 nM | > 100 µM | 2930 nM | > 100 µM | 62300 nM | > 100 µM | 31000 nM | > 100 µM | 11200 nM | > 100 µM | > 100 µM | > 100 µM | > 100 µM | > 100 µM | 7.56 µM | > 100 µM | > 100000 nM | > 100 µM | 16200 nM | 68.1 µM
10 | C=C1[C@@H](C)[C@H]2[C@H](Cc3ccccc3)NC(=O)[C@]23OC(=O)/C=C/[C@H](O)CCC[C@@H](C)C/C=C/[C@H]3[C@@H]1O |  | 66.4 µM |  | 39.6 µM |  | > 100 µM |  | 53.5 µM |  | > 100 µM |  | 47 µM |  | > 100 µM |  | > 100 µM |  | 4.51 µM |  | 63.1 µM
